Source: publication PMC8362039, “Development of Non‐Hydrolysable Oligosaccharide Activity‐Based Inactivators for Endoglycanases: A Case Study on α‐1,6 Mannanases” (Chemistry (Weinheim an Der Bergstrasse, Germany), 2021)

Assays:
Test in all cases: intact protein mass spectrometry
Type in all cases: binding
BcGH76 [1] = biological target: T1, BcGH76 (Niallia circulans, UniProt Q9Z4P9); conditions: probe:protein 10:1, 25 mM HEPES pH 7, 100 mM NaCl, 293 K, 22 h
T1 construct: gene aman6; recombinant GH76 endo-mannanase; borders and tags not given; R341Q crystallisation variant also used
Description: (§1) intact protein mass spectrometry on BcGH76

BcGH76 [2] = biological target: T2, BcGH76 (Niallia circulans, UniProt Q9Z4P9, R341Q); conditions: covalent, probe:protein 10:1, 25 mM HEPES pH 7, 100 mM NaCl, 293 K
T2 construct: gene aman6; recombinant GH76 endo-mannanase; borders and tags not given; R341Q crystallisation variant also used
Description: as §1

BcGH76 [3] = biological target: T3, BcGH76 (Niallia circulans, UniProt Q9Z4P9, D125N); conditions: probe:protein 10:1, 25 mM HEPES pH 7, 100 mM NaCl, 293 K
T3 construct: gene aman6; recombinant GH76 endo-mannanase; borders and tags not given; R341Q crystallisation variant also used
Description: as §1

BcGH76 [4] = biological target: T4, BcGH76 (Niallia circulans, UniProt Q9Z4P9, D125N/R341Q); conditions: covalent, probe:protein 10:1, 25 mM HEPES pH 7, 100 mM NaCl, 293 K
T4 construct: gene aman6; recombinant GH76 endo-mannanase; borders and tags not given; R341Q crystallisation variant also used
Description: as §1

T1 sequence (Q9Z4P9 entry or part of it): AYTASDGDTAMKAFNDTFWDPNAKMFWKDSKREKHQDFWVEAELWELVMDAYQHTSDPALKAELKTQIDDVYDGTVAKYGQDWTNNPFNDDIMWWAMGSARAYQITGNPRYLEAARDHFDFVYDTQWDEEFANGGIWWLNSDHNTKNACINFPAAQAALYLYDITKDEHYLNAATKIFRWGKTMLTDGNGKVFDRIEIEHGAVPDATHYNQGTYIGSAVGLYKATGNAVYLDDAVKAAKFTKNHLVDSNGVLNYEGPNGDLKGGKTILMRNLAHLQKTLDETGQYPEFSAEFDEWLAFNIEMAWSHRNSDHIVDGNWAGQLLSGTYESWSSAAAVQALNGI
T2 sequence (Q9Z4P9 entry or part of it R341Q): as the sequence (Q9Z4P9 entry or part of it) above, with R307Q counted along it
T3 sequence (Q9Z4P9 entry or part of it D125N): as the sequence (Q9Z4P9 entry or part of it) above, with D91N counted along it
T4 sequence (Q9Z4P9 entry or part of it D125N/R341Q): as the sequence (Q9Z4P9 entry or part of it) above, with D91N, R307Q counted along it

Compound | covalent labelling (BcGH76 [1]) [%] | 22 h incubation / 1 (BcGH76 [2]) [%] | 22 h incubation / 2 (BcGH76 [3]; covalent) [%] | 22 h incubation / 2 (BcGH76 [4]) [%] | 16 h incubation / 2 (BcGH76 [2]; 22 h) [%] | percent covalent labelling (BcGH76 [1]) [%] | covalent labelling of protein (%) (BcGH76 [3]; 22 h) | 22 h incubation / 3 (BcGH76 [4]) [%] | 16 h incubation / 3 (BcGH76 [2]; 22 h) [%]
OC[C@H]1O[C@H](OC[C@@H]2[C@@H](O)[C@H](O)[C@H](O)[C@H]3O[C@@H]23)[C@@H](O)[C@@H](O)[C@@H]1O [compound 1, α‐1,6‐α‐manno‐cyclophellitol disaccharide 1] | 30 | 30 | – | – | – | – | – | – | –
OC[C@H]1O[C@H](OC[C@H]2O[C@H](OC[C@@H]3[C@@H](O)[C@H](O)[C@H](O)[C@H]4O[C@@H]34)[C@@H](O)[C@@H](O)[C@@H]2O)[C@@H](O)[C@@H](O)[C@@H]1O [compound 2, trisaccharide 2] | 30 | – | 85 | 85 | 17 | – | – | – | –
OC[C@H]1O[C@H](OC[C@H]2C[C@H](OC[C@@H]3[C@@H](O)[C@H](O)[C@H](O)[C@H]4O[C@@H]34)[C@@H](O)[C@@H](O)[C@@H]2O)[C@@H](O)[C@@H](O)[C@@H]1O [compound 3, carba‐trisaccharide cyclophellitol 3] | – | – | – | – | – | 100 | 44 | 45 | 100
